Data reported in patent US20080317876A1, “USE OF A MAGNESIUM ISOTOPE FOR TREATING HYPOXIA AND A MEDICAMENT COMPRISING THE SAME” (priority 2007, published 2008).
≈ marks a conversion by molar mass, not a printed value.

Key:
[1] = unmodified C60-fullerene; cited from earlier work
[2] = system: heart muscle tissue (rat myocardium) under hypoxia; type: in vivo
Protocol: Same tests were also performed in inhalation hypoxia model specified below (FIG. 14-16).
The following in vivo experimental hypoxia models were employed:
(1) Medicinal hypoxia syndrome A (1-methylnicotineamide (MNA), 10-20 mg/kg i.v. once per 24 hrs); […] (2) Medicinal hypoxia syndrome B (DXR 60-80 mg/kg i.v. once per 24 hrs); (3) The oxygen depleted inhalation model (10-20 day long exposition of rats to the artificial gas mixture to breath with, 12-16% oxygen/84-88% nitrogen, v/v).
Male adult Wistar Albino Glaxo rats (180-220 gms) were used, 3-4 animals per each experimental point.

[3] = system: heart muscle mitochondria membranes; test: Retention of the drug by heart muscle mitochondria membranes after a single i.v. injection; type: in vivo
[4] = Cationite capacity; type: physicochemical

Molecule	solubility [1] [ng/mL]	protecting the heart muscle tissue from the damaging impact promoted by hypoxia ([2]; hypoxia of any sort, even at extra low doses)	safety of long term multiple administration of extra low doses ([2]; in vivo)	effect in medicinal hypoxic cardiotoxicity cases (DXR, MNA) ([2]; long term multiple administration, extra low doses)	time the drug molecule is retained by heart muscle mitochondria membranes [3]	cationite capacities [4]
c12c3c4c5c1c1c6c7c2c2c8c3c3c9c4c4c%10c5c5c1c1c6c6c%11c7c2c2c7c8c3c3c8c9c4c4c9c%10c5c5c1c1c6c6c%11c2c2c7c3c3c8c4c4c9c5c1c1c6c2c3c41 [C60-fullerene]	1.3e-05 (≈ 1.8e-05 nM)					
fullerene (C60)-2-(butadiene-1-yl)tetra(o-γ-aminobutyryl-o-phtalyl)ferroporphyrin [PMC16]		efficient	totally safe	marked prophylactic and therapeutic effect	not less than a week	320-370 meqv/mmol
